Laboratory results as given in US8846675B2, “N-linked heterocyclic receptor agonists for the treatment of diabetes and metabolic disorders” (Cymabay Therapeutics, Inc., priority 2007, dated 2014).
Counter-ions that a name gives are not always drawn.

biological target: T1, IC-GPCR2 (Homo sapiens, UniProt Q8TDV5); assay: Stimulation of cAMP in CHO cell line stably expressing IC-GPCR2 (HTRF cAMP dynamic kit); format: cell-based; settings: 3 μM compound; relative to maximal activity of 5-Ethyl-2-{4-[4-(4-tetrazol-1-yl-phenoxymethyl)-thiazol-2-yl]-piperidin-1-yl}-pyrimidine (=100%); IC-GPCR2 stably expressing CHO cells, 30 minutes
T1 construct: expressed in transfected cells
T1 sequence (Q8TDV5 1-335 S309L): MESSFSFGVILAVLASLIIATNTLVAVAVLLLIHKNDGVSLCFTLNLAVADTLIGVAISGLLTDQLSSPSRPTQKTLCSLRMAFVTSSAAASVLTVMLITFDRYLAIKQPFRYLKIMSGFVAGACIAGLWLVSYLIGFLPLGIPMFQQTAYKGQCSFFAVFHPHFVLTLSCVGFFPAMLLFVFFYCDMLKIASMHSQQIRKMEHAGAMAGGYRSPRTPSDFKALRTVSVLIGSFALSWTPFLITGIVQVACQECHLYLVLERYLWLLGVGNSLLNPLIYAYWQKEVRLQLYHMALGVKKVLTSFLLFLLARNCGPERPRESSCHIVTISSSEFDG
Description: This assay was developed using a stable cell line expressing IC-GPCR-2, generated as follows. IC-GPCR2 (Seq. ID No. 1) was cloned into Gateway pDEST 40vector (Invitrogen), using the Gateway cloning system (invitrogen) according to the manufacturers instructions. A stable cell line was generated by transfecting a 10 cm plate of CHO cells (source) with 8 ug of this construct using Transit-CHO transfection kit (Mirus). CHO cells were plated the day prior to transfection at a density of 3,000,000 cells/plate. Clones were selected using the antibiotic G418 at 500 ug/ml. 23 clones were picked and assayed for the expression of the receptor by measuring changes in intracellular cAMP levels in response to an IC-GPCR2 agonist (Arena 51).
To measure cAMP activity in response to IC-GPCR2 agonist, the clones were plated in 96 well plates at 17500 cells per well. On the day after plating, cells were incubated with the IC-CPCR2 agonist at […] for 30 minutes in Ham's F12 Media (Gibco) with 0.04% DMSO. cAMP was measured using the cAMP dynamic kit from C is Bio (Bedford, Mass.) according to the manufacturers instructions. Briefly, cells were lysed, and cAMP levels determined by competitive immunoassay using D2 labeled cAMP, and europium cryptate tagged anti cAMP antibody. When in close proximity, the D2 and europium cryptate undergo fluorescence resonance energy transfer (FRET), which is measured as a fluorescence ratio (665 nm/620 nm). Unlabelled cAMP in the cell lysatc competed with the D2 labeled cAMP for the europium crypate labeled antibody. The resulting decrease in FRET signal corresponded to intracellular cAMP levels. Fluorescence was read on a BMG Labtech PHERAstar, software version 1.50.
The clone with the greatest response to IC-GPCR2 agonist was selected for the screening assay.
Compounds were dissolved in 100% DMSO to a concentration of […] to provide stock solutions. To determine activity against IC-GPCR2, compounds were incubated with IC-GPCR2 stably expressing cells (described above), at 6-8 concentrations ranging from 0.00003 to 10 micromolar, in 96 well plates, in 50 ul of Hams F12 media for 30 minutes. Cells were plated at 17500 cells per well 1 day before running the assay. All compounds were also screened against the parental CHO cells. cAMP was measured using the cAMP dynamic kit from Cis Bio (Bedford, Mass.), according to the manufacturer's instructions. Briefly, cells were lysed and cAMP levels determined by competitive immunoassay using D2 labeled cAMP, and europium cryptate tagged anti cAMP antibody. When in close proximity, the D2 and europium cryptate undergo fluorescence resonance energy transfer (FRET), which is measured as a fluorescence ratio (665 nm/620 nm). Unlabelled cAMP in the cell lysate competed with the D2 labeled cAMP for the europium crypate labeled antibody. The resulting decrease in FRET signal corresponded to intracellular cAMP levels
To determine percent activity for a tested compound, the FRET signal value obtained at a particular concentration are compared to the Maximal FRET signal value obtained for 5-Ethyl-2-{4-[4-(4-tetrazol-1-yl-phenoxymethyl)-thiazol-2-yl]-piperidin-1-yl}-pyrimidine. The maximal activity of 5-Ethyl-2-{4-[4-(4-tetrazol-1-yl-phenoxymethyl)-thiazol-2-yl]-piperidin-1-yl}-pyrimidine is designated as 100% activity. Typically, the concentration of 5-Ethyl-2-{4-[4-(4-tetrazol-1-yl-phenoxymethyl)-thiazol-2-yl]-piperidin-1-yl}-pyrimidine in the assay was approximately 0.1 μM. The synthesis of 5-Ethyl-2-{4-[4-(4-tetrazol-1-yl-phenoxymethyl)-thiazol-2-yl]-piperidin-1-yl}-pyrimidine is disclosed in co-owned pending U.S. patent application Ser. No. 11/964,461, herein incorporated by reference. Activities of compounds that were tested are shown in Table 1 below and are expressed as % activity at 3 μM compound compared to the maximal activity of 5-Ethyl-2-{4-[4-(4-tetrazol-1-yl-phenoxymethyl)-thiazol-2-yl]-piperidin-1-yl}-pyrimidine at 3 μM.

| % activity at 3 μM [%] | SMILES |
| --- | --- |
| 72.14 | CC(C)OC(=O)N1CCC(n2ncc(COc3ccc(-n4cnnn4)nc3)n2)CC1 [Example 35, Isopropyl 4-(4-((6-(1H-tetrazol-1-yl)pyridin-3-yloxy)methyl)-2H-1,2,3-triazol-2-yl)piperidine-1-carboxylate] |
| 42.63 | O=S(=O)(C1CC1)N1CCC(n2ncc(COc3ccc(-n4cnnn4)nc3)n2)CC1 [Example 41, 5-((2-(1-(Cyclopropylsulfonyl)piperidin-4-yl)-2H-1,2,3-triazol-4-yl)methoxy)-2-(1H-tetrazol-1-yl)pyridine] |
| 70.92 | O=S(=O)(C1CCCCC1)N1CCC(n2ncc(COc3ccc(-n4cnnn4)nc3)n2)CC1 [Example 44, 5-((2-(1-(Cyclohexylsulfonyl)piperidin-4-yl)-2H-1,2,3-triazol-4-yl)methoxy)-2-(1H-tetrazol-1-yl)pyridine] |
| 67.58 | CC(C)S(=O)(=O)N1CCC(n2ncc(COc3ccc(-n4cnnn4)nc3)n2)CC1 [Example 45, 5-((2-(1-(Isopropylsulfonyl)piperidin-4-yl)-2H-1,2,3-triazol-4-yl)methoxy)-2-(1H-tetrazol-1-yl)pyridine] |
| 79.78 | CCCCS(=O)(=O)N1CCC(n2ncc(COc3ccc(-n4cnnn4)nc3)n2)CC1 [Example 46, 5-((2-(1-(Butylsulfonyl)piperidin-4-yl)-2H-1,2,3-triazol-4-yl)methoxy)-2-(1H-tetrazol-1-yl)pyridine] |
| 49.51 | CC(C)(C)OC(=O)N1CCC(CC(=O)N2CCC(n3ncc(COc4ccc(-n5cnnn5)nc4)n3)CC2)CC1 [Example 50, tert-Butyl 4-(2-(4-(-((6-(1H-tetrazol-1-yl)pyridine-3-yloxy)methyl)-2H-1,2,3-triazol-2-yl)piperidin-1-yl)-2-oxoethyl)piperidine-1-carboxylate] |
| 57.93 | O=C(CC1CCNCC1)N1CCC(n2ncc(COc3ccc(-n4cnnn4)nc3)n2)CC1 [Example 51, 1-(4-(4-((6-(1H-Tetrazol-1-yl)pyridin-3-yloxy)methyl)-2H-1,2,3-triazol-2-yl)piperidin-1-yl)-2-(piperidin-4-yl)ethanone hydrochloride] |
| 36.82 | C[C@H](NC(=O)OC(C)(C)C)C(=O)N1CCC(n2ncc(COc3ccc(-n4cnnn4)nc3)n2)CC1 [Example 54, (S)-tert-Butyl 1-(4-(4-((6-(1H-tetrazol-1-yl)pyridin-3-yloxy)methyl)-2H-1,2,3-triazol-2-yl)piperidin-1-yl)-1-oxopropan-2-ylcarbamate] |
| 31.89 | C[C@H](N)C(=O)N1CCC(n2ncc(COc3ccc(-n4cnnn4)nc3)n2)CC1 [Example 55, (S)-1-(4-(4-((6-(1H-tetrazol-1-yl)pyridin-3-yloxy)methyl)-2H-1,2,3-triazol-2-yl)piperidin-1-yl)-2-aminopropan-1-one hydrochloride] |
| 7.31 | CC(C)(C)OC(=O)N[C@H](CC(=O)N1CCC(n2ncc(COc3ccc(-n4cnnn4)nc3)n2)CC1)Cc1cc(F)c(F)cc1F [Example 56, (S)-tert-Butyl 4-(4-(4-((6-(1H-tetrazol-1-yl)pyridin-3-yloxy)methyl)-2H-1,2,3-triazol-2-yl)piperidin-1-yl)-4-oxo-1-(2,4,5-trifluorophenyl)butan-2-ylcarbamate] |

More lines, now with the values behind:

| SMILES | % activity at 3 μM [%] |
| --- | --- |
| FC(F)(F)c1cnc(N2CCC(n3ncc(COc4ccc(-n5cnnn5)nc4)n3)CC2)nc1 [Example 22, 2-{4-[4-(6-Tetrazol-1-yl-pyridin-3-yloxymethyl)-[1,2,3]triazol-2-yl]-piperidin-1-yl}-5-trifluoromethyl-pyrimidine] | 78.44 |
| c1cc(-n2cnnn2)ncc1OCc1cnn(C2CCN(c3nc(C4CC4)no3)CC2)n1 [Example 29, 5-{2-[1-(3-Cyclopropyl-[1,2,4]oxadiazol-5-yl)-piperidin-4-yl]-2H-[1,2,3]triazol-4-ylmethoxy}-2-tetrazol-1-yl-pyridine] | 48.76 |
| Fc1cnc(N2CCC(n3ncc(COc4ccc(-n5cnnn5)cc4F)n3)CC2)nc1 [Example 30, 5-Fluoro-2-(4-(4-((2-fluoro-4-(1H-tetrazol-1-yl)phenoxy)methyl)-2H-1,2,3-triazol-2-yl)piperidin-1-yl)pyrimidine] | 53.41 |
| Fc1cnc(N2CCC(n3ncc(COc4ccc(-n5cnnn5)nc4)n3)CC2)nc1 [Example 31, 2-(4-(4-((6-(1H-tetrazol-1-yl)pyridin-3-yloxy)methyl)-2H-1,2,3-triazol-2-yl)piperidin-1-yl)-5-fluoropyrimidine] | 59.95 |
| CCc1cnc(N2CCC(n3ncc(COc4ccc(-n5cnnn5)nc4)n3)CC2)nc1 [Example 32, 2-(4-(4-((6-(1H-tetrazol-1-yl)pyridin-3-yloxy)methyl)-2H-1,2,3-triazol-2-yl)piperidin-1-yl)-5-ethylpyrimidine] | 75.55 |
| CC(C)OC(=O)N1CCC(n2ncc(COc3ccc(S(C)(=O)=O)cc3F)n2)CC1 [Example 36, Isopropyl 4-(4-((2-fluoro-4-(methylsulfonyl)phenoxy)methyl)-2H-1,2,3-triazol-2-yl)piperidine-1-carboxylate] | 70.06 |
| CC(C)OC(=O)N1CCC(n2ncc(COc3ccc(-n4cnnn4)cc3F)n2)CC1 [Example 37, Isopropyl 4-(4-((2-fluoro-4-(1H-tetrazol-1-yl)phenoxy)methyl)-2H-1,2,3-triazol-2-yl)piperidine-1-carboxylate] | 62.88 |
| O=S(=O)(c1c[nH]cn1)N1CCC(n2ncc(COc3ccc(-n4cnnn4)nc3)n2)CC1 [Example 40, 5-((2-(1-(1H-Imidazol-4-ylsulfonyl)piperidin-4-yl)-2H-1,2,3-triazol-4-yl)methoxy)-2-(1H-tetrazol-1-yl)pyridine] | 7.10 |
| O=S(=O)(Cc1ccccc1)N1CCC(n2ncc(COc3ccc(-n4cnnn4)nc3)n2)CC1 [Example 47, 5-((2-(1-(Benzylsulfonyl)piperidin-4-yl)-2H-1,2,3-triazol-4-yl)methoxy)-2-(1H-tetrazol-1-yl)pyridine] | 74.90 |
| Cc1ncccc1OCc1cnn(C2CCN(c3ncc(C(F)(F)F)cn3)CC2)n1 [Example 48] | 83.24 |
| COC(=O)Cc1cnc(N2CCC(n3ncc(COc4ccc(-n5cnnn5)nc4)n3)CC2)nc1 [Example 52, Methyl 2-(2-(4-(4-((6-(1H-tetrazol-1-yl)pyridin-3-yloxy)methyl)-2H-1,2,3-triazol-2-yl)piperidin-1-yl)pyrimidin-5-yl)acetate] | 52.86 |
| N[C@H](CC(=O)N1CCC(n2ncc(COc3ccc(-n4cnnn4)nc3)n2)CC1)Cc1cc(F)c(F)cc1F [Example 57, (S)-1-(4-(4-((6-(1H-tetrazol-1-yl)pyridin-3-yloxy)methyl)-2H-1,2,3-triazol-2-yl)piperidin-1-yl)-3-amino-4-(2,4,5-trifluorophenyl)butan-1-one hydrochloride] | 27.80 |
